These results are taken from PubChem BioAssay (NCI).

What all share (assay): inhibition of tumour cell growth, NCI panel, 48 h
For test [1], the system named is NCI-H460 lung.
For test [2], the system named is A549 NSCLC.
In test [3] the test system is UACC-62 melanoma.
For test [4], the system named is 786-0 renal.
Test [5] deals with RPMI-8226 leukemia.
Test [6] has as its system KM12 colon.
The subject of test [7] is HOP-92 NSCLC.
Test [8] concerns OVCAR-8 ovarian.
Test [9] has as its system HCC-2998 colon.
For test [10], the system named is UO-31 renal.

“And” between values parts separate entries of the source, which are not always exact repeats. Identical values can stand only once.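 48-hour exposure; five concentrations; linearly interpolated endpoints. Abbreviation: GI50, concentration required for 50% inhibition of growth. TGI denotes the concentration required for complete inhibition of growth.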

`CCN=C(N)CSS(=O)(=O)O`: the TGI in test [1], in test [2], in test [3], in test [4], in test [5] and in [6] was > 100 µM in each case. For the same compound, the TGI in test [7] and in test [8] was > 100 µM throughout.

As to `Cc1ccc(NC(=O)CCC(=O)C2CC(=O)CCC2=O)cc1C` (stereo not drawn), the TGI in test [9], in test [1], in test [2], in [3], in [10] and in test [4] was > 100 µM in each case. Moreover, the TGI in test [6], in test [7] and in test [8] was > 100 µM each time.

For the compound `COC(=O)Oc1nn(C(=O)OC)c(=O)c2ccccc12` (tested in a mixture with another compound), the TGI in test [9], in test [1], in [2], in test [3], in [10] and in test [4] was > 100 µM in each case. Also, the TGI in test [5], in test [6] and in test [8] was > 100 µM in each case.

As for `CC1(C)OCC(C2OC(On3nnc4ccc(Cl)cc43)C3OC(C)(C)OC23)O1` (stereo not drawn), the TGI in [1], in test [2], in [3], in test [4], in [5] and in [6] was > 100 µM in each case. Besides, the TGI in test [7] and in test [8] was > 100 µM throughout.

As to `COc1cc(-c2[nH]ncc2CCCC(=O)Nc2ccccc2[N+](=O)[O-])ccc1O`, the TGI in test [9], in test [2], in test [3], in test [10], in [4] and in test [5] was > 100 µM each time. Moreover, the TGI in test [7] and in test [8] was > 100 µM each time.

Turning to `COc1ccc(Nc2nc3c(N)cc(C(F)(F)F)cc3nc2-c2ccccc2)cc1`, the TGI in [9], in test [1], in test [2], in test [3], in test [10] and in test [4] was > 100 µM in each case. In addition, the TGI in [6], in test [7] and in [8] was > 100 µM each time.

Turning to `O=S(=O)(Nc1ccc2ccc3cccc4ccc1c2c34)c1ccccc1`, the TGI in test [1] is > 100 µM; in test [2], > 100 µM; in [3], > 100 µM; in test [10] it was > 100 µM; in test [4], > 100 µM; in test [5], 32.5 µM. Moreover, the TGI in test [6] was > 100 µM; in [7], 98.3 µM; in test [8], > 100 µM.

`COC12c3ccccc3-c3ccccc3C1[C@@H](C(=O)O)[C@H]2C(=O)O` (stereo partly drawn): the TGI in test [9], in test [1], in test [10], in [4], in test [5] and in test [6] was > 10 µM throughout. Moreover, the TGI in test [7] and in test [8] was > 10 µM each time.

As to `Cn1cccc1C1CC(=O)N(CCC[Se]C#N)C1=O` (stereo not drawn), the GI50 was 2.96 µM in [9]; 2.05 µM in test [1]; 2.07 µM in [2]; 1.87 µM in test [3]; 1.57 µM in test [10]; 1.95 µM in test [4]. The GI50 was 2.2 µM in [5], 2.11 µM in [6] and 2.05 µM in test [8]. Besides, the TGI in test [9] was found to be 10.1 µM; in test [1], 5.93 µM; in [2] it was 5.17 µM; in test [3], 3.91 µM; in test [10], 3.29 µM; in test [4] it was 3.44 µM. For the same compound, the TGI in [5] stood at 5.04 µM; in [6] it was 5.36 µM; in test [8], 4.44 µM.

As for `Cc1cc(C)c2c(c1C)CN1CN2Cc2c(C)c(C)cc(C)c21`, the TGI in [1], in test [2], in test [3], in test [10], in test [4] and in test [5] was > 100 µM throughout. For the same compound, the TGI in test [6], in test [7] and in test [8] was > 100 µM throughout.

As for `CC(=O)[CH-]C(=O)c1ccccc1.CC(=O)[CH-]C(=O)c1ccccc1.[O-]Cc1cccs1.[O-]Cc1cccs1.[Ti+4]`, the GI50 in [9] was > 100 µM; in test [1] it was 29.4 µM; in [2], 97.9 µM; in [3], 18 µM; in [10], > 100 µM; in [4] it was > 100 µM. The values for the GI50 in [5], in test [6] and in [8] were 27.1 µM, 47.9 µM and > 100 µM, respectively. The TGI in test [9], in test [1], in [2], in [3], in test [10] and in test [4] was > 100 µM throughout. Besides, the TGI was 71.3 µM in test [5], > 100 µM in [6] and > 100 µM in test [8].

With `CN(C)CC1CCCC(CN(C)C)C1=O` (stereo not drawn), the TGI in test [9] is 29.5 µM and 36 µM; in [1] it was 38.5 µM and 33.8 µM; in test [2] it was 48.1 µM and > 63.6 µM; in [3], 18.3 µM and 33.4 µM; in test [4] it was 5.94 µM and 4.61 µM; in test [5], 1.53 µM and 2.36 µM. Also, the TGI was 16.9 µM and 33.3 µM in test [6]; 2.26 µM in test [7]; 5.86 µM and 10.6 µM in test [8]. Besides, the GI50 in test [3] is 8.32 µM and 18 µM; in [5] it was 0.125 µM and 0.458 µM; in [6], 6.05 µM and 17.2 µM.

For `COc1cc(C2c3cc4c(cc3[C@@H](OCCN)[C@H]3COC(=O)C23)OCO4)cc(OC)c1O` (stereo partly drawn), the TGI in [9] is 2.1 µM; in test [1], > 100 µM; in [2], 1.34 µM; in [3], 0.579 µM; in [10], 13.6 µM; in test [4], 0.437 µM. For the same compound, the TGI in test [7] came to 1.43 µM; in test [8] it was 2.61 µM.

For the compound `CCOC(=O)C1=C(O)CSC1=Nc1ccc(N=C2SCC(O)=C2C(=O)OCC)cc1`, the TGI was 92 µM in test [1]; 93 µM in [2]; 44.2 µM in test [3]; 37.7 µM in test [10]; 31.4 µM in test [4]; > 100 µM in test [5]. The TGI is 44.9 µM in test [6], 64 µM in test [7] and > 100 µM in [8].

`CCN1N=CSC12C(=O)N(c1ccccc1)C(=O)N2c1ccccc1` (stereo not drawn): the TGI in [9], in test [1], in [2], in [3], in test [10] and in test [4] was > 100 µM in each case. For the same compound, the TGI in [6], in test [7] and in [8] was > 100 µM in each case.

With `COc1ccc(C(=O)Nc2ccccc2)cc1[N+](=O)[O-]`, the TGI in test [1], in [2], in [3], in [10], in [4] and in test [5] was > 100 µM each time. For the same compound, the TGI in test [6] and in test [8] was > 100 µM in each case.

For `COc1cccc(C2C3=C(COC3=O)N(CCO)c3cc4c(cc32)CCC4)c1` (stereo not drawn), the GI50 in test [9] was 0.0795 µM; in test [1] it was 0.0426 µM; in test [2], 0.0982 µM; in test [3], 34.2 µM; in [10], 0.0192 µM; in [4], 0.0731 µM. In addition, the GI50 was 0.127 µM in [5], 0.0219 µM in [6] and 0.098 µM in test [8]. Moreover, the TGI was 1.31 µM in test [9]; 0.319 µM in [1]; > 50 µM in test [3]; 1.44 µM in [10]; 10.8 µM in [4]; 11.6 µM in test [5]. Also, the results for the TGI in test [6] and in test [8] were 0.443 µM and > 17.1 µM, respectively.

Turning to `COC(=O)C1(c2ccc(OC)cc2)NC(c2ccccc2)C2C(=O)N(c3ccc(OC)cc3)C(=O)C21` (stereo not drawn), the TGI in [9], in test [1], in test [2], in [3], in test [10] and in [4] was > 100 µM in each case. For the same compound, the TGI in test [5], in [6] and in test [8] was > 100 µM each time.

With `COc1ccc2c(c1)C(=O)/C(=C/c1ccc(OCC(=O)c3ccc(Cl)cc3)cc1)O2`, the GI50 in test [1] was 29.7 µM; in test [2], 31.4 µM; in [3], 17.5 µM; in [10] it was 10.4 µM; in test [4], 21.7 µM; in test [5], 3.87 µM. The GI50 was 15.6 µM in [6], 15.7 µM in test [7] and 42.4 µM in [8]. Moreover, the TGI was > 100 µM in test [1]; > 100 µM in test [2]; > 100 µM in test [3]; 25.6 µM in test [10]; 47.2 µM in [4]; 21.6 µM in test [5]. Also, the values for the TGI in [6], in test [7] and in [8] were 30.1 µM, 37.1 µM and > 100 µM, respectively.

As for `COc1ccc(Br)c(CCCCC(=O)O)c1`, the TGI in test [9], in test [1], in [2], in test [3], in [4] and in test [5] was > 100 µM each time. Further, the values for the TGI in test [7] and in [8] were 76.3 µM and > 100 µM, respectively.

For the compound `COC(=O)[C@@]12C3=NO[C@]1(C(=O)OC)C(O[Si](C)(C)C(C)(C)C)C1OC(C)(C)OC1[C@@H]2[C@@H](OCc1ccccc1)CC3` (stereo partly drawn), the TGI in [9], in test [2], in test [3], in test [10], in [4] and in [5] was > 100 µM throughout. Also, the TGI in [6] is > 100 µM; in test [7], 17.3 µM; in test [8], > 100 µM.

Take `COc1ccc(C(NCCNC(c2ccc(OC)c(OC)c2)c2cc3c(cc2O)OCO3)c2cc3c(cc2O)OCO3)cc1OC` (stereo not drawn): the TGI in test [1] was determined as 18.3 µM; in test [2], 32.3 µM; in test [3], 7.52 µM; in test [10], 8.27 µM; in test [4] it was 4.58 µM; in test [6], 7.11 µM. In addition, the TGI in test [7] stood at 17.1 µM.

Turning to `Cc1ccc(S(=O)(=O)OC(C=O)C(O)C(O)COC(c2ccccc2)(c2ccccc2)c2ccccc2)cc1` (stereo not drawn), the TGI in [9] turned out to be 24.3 µM; in test [1], 26.9 µM; in test [2] it was 33.3 µM; in test [3], 28.9 µM; in test [10] it was 30.4 µM; in test [4] it was 27.3 µM. The TGI came to 36.9 µM in [5], 24.2 µM in [6] and 26.5 µM in [8].

On to `C#CCSc1nnnn1-c1ccc(Br)c(C)c1`, for which the GI50 was 33.8 µM in test [9]; 31.5 µM in test [1]; 38 µM in test [2]; 18.3 µM in [3]; 54.9 µM in test [4]; 22.5 µM in test [5]. In addition, the figures for the GI50 in [6], in test [7] and in test [8] were 35 µM, 14.5 µM and 20.3 µM, respectively. Also, the TGI was > 100 µM in [9]; > 100 µM in test [1]; > 100 µM in [2]; 91.2 µM in test [3]; > 100 µM in test [4]; 74 µM in test [5]. Further, the TGI is > 100 µM in test [6], 74.5 µM in [7] and > 100 µM in [8].

Consider `Cc1nc(N=C(N)N)nc2ccc3ccccc3c12`, for which the GI50 in test [1] was 2.31 µM; in [2] it was 1.95 µM; in [10], 2.14 µM; in test [4], 1.11 µM; in [5] it was 2.53 µM; in test [6] it was 1.03 µM. The GI50 in test [8] was 0.811 µM. The TGI in test [1] stood at 6.56 µM; in test [2], 7.24 µM; in test [10], 8.52 µM; in test [4], 3.01 µM; in [5] it was 7.36 µM; in test [6], 4.37 µM. Besides, in test [8], the TGI stood at 3.91 µM.
